From patent US10279022B2, “Peptides and combination of peptides for use in immunotherapy against various cancers” (immatics biotechnologies GmbH, priority 2015, dated 2019) come the findings set out here.

For one assay, the system named is CD8+ T cells. Description: In vitro T-cell priming assay (aAPCs loaded with peptide/MHC and anti-CD28), pMHC multimer readout. The conditions noted are these: in vitro immunogenicity of HLA class I peptides; peptide specific pMHC multimer staining after three stimulation cycles. Type of assay: cell-based, human. From the text: In order to obtain information regarding the immunogenicity of the TUMAPs of the present invention, the inventors performed investigations using an in vitro T-cell priming assay based on repeated stimulations of CD8+ T cells with artificial antigen presenting cells (aAPCs) loaded with peptide/MHC complexes and anti-CD28 antibody.
In order to perform in vitro stimulations by artificial antigen presenting cells loaded with peptide-MHC complex (pMHC) and anti-CD28 antibody, the inventors first isolated CD8+ T cells from fresh HLA-A*02 leukapheresis products via positive selection using CD8 microbeads (Miltenyi Biotec, Bergisch-Gladbach, Germany) of healthy donors obtained from the University clinics Mannheim, Germany, after informed consent.
PBMCs and isolated CD8+ lymphocytes were incubated in T-cell medium (TCM) until use consisting of RPMI-Glutamax (Invitrogen, Karlsruhe, Germany) supplemented with 10% heat inactivated human AB serum (PAN-Biotech, Aidenbach, Germany), 100 U/ml Penicillin/100 μg/ml Streptomycin (Cambrex, Cologne, Germany), 1 mM sodium pyruvate (CC Pro, Oberdorla, Germany), 20 μg/ml Gentamycin (Cambrex). 2.5 ng/ml IL7 (PromoCell, Heidelberg, Germany) and 10 U/ml IL-2 (Novartis Pharma, Nurnberg, Germany) were also added to the TCM at this step.
Generation of pMHC/anti-CD28 coated beads, T-cell stimulations and readout was performed in a highly defined in vitro system using four different pMHC molecules per stimulation condition and 8 different pMHC molecules per readout condition.
The purified co-stimulatory mouse IgG2a anti human CD28 Ab 9.3 (Jung et al., 1987) was chemically biotinylated using Sulfo-N-hydroxysuccinimidobiotin as recommended by the manufacturer (Perbio, Bonn, Germany). Beads used were 5.6 μm diameter streptavidin coated polystyrene particles (Bangs Laboratories, Illinois, USA).
pMHC used for positive and negative control stimulations were A*0201/MLA-001 (peptide […] (SEQ ID NO. 303) from modified Melan-A/MART-1) and A*0201/DDX5-001 ([…] from DDX5, SEQ ID NO. 304), respectively.
800.000 beads/200 μl were coated in 96-well plates in the presence of 4×12.5 ng different biotin-pMHC, washed and 600 ng biotin anti-CD28 were added subsequently in a volume of 200 μl. Stimulations were initiated in 96-well plates by co-incubating 1×10^6 CD8+ T cells with 2×10^5 washed coated beads in 200 μl TCM supplemented with 5 ng/ml IL-12 (PromoCell) for 3 days at 37° C. Half of the medium was then exchanged by fresh TCM supplemented with 80 U/ml IL-2 and incubating was continued for 4 days at 37° C. This stimulation cycle was performed for a total of three times. For the pMHC multimer readout using 8 different pMHC molecules per condition, a two-dimensional combinatorial coding approach was used as previously described (Andersen et al., 2012) with minor modifications encompassing coupling to 5 different fluorochromes. Finally, multimeric analyses were performed by staining the cells with Live/dead near IR dye (Invitrogen, Karlsruhe, Germany), CD8-FITC antibody clone SK1 (BD, Heidelberg, Germany) and fluorescent pMHC multimers. For analysis, a BD LSRII SORP cytometer equipped with appropriate lasers and filters was used. Peptide specific cells were calculated as percentage of total CD8+ cells. Evaluation of multimeric analysis was done using the FlowJo software (Tree Star, Oregon, USA). In vitro priming of specific multimer+CD8+ lymphocytes was detected by comparing to negative control stimulations.
“5 (GIVAHIQEV; listed as Homo sapiens) [compound 5]”: the “Wells positive [%]” value is given as “+ (<20% = +)”.

Turning to “18 (ILLDLTDNRL; listed as Homo sapiens) [compound 18]”, the “Wells positive [%]” value was “+ (<20% = +)”.

With “23 (SLFSDEFKV; listed as Homo sapiens) [compound 23]”, the “Wells positive [%]” value was “++++ (> = 70% = ++++)”.

For “26 (ALQEELTEL; listed as Homo sapiens) [compound 26]”, the “Wells positive [%]” value is reported as “+ (<20% = +)”.

In the case of “29 (YLLDPSITL; listed as Homo sapiens) [compound 29]”, the “Wells positive [%]” value is “+ (<20% = +)”.

Turning to “31 (TITETTVEV; listed as Homo sapiens) [compound 31]”, the “Wells positive [%]” value is “+ (<20% = +)”.

“35 (FLLPFSTVYL; listed as Homo sapiens) [compound 35]”: the “Wells positive [%]” value is on record as “+ (<20% = +)”.

On to “90 (FLQDLEQRL; listed as Homo sapiens) [compound 90]”, for which the “Wells positive [%]” value was “+ (<20% = +)”.

As to “141 (FLDKVLVAA; listed as Homo sapiens) [compound 141]”, the “Wells positive [%]” value was “+ (<20% = +)”.

For the substance “149 (ILNTHITEL; listed as Homo sapiens) [compound 149]”, the “Wells positive [%]” value is on record as “+ (<20% = +)”.

As to “196 (LYIDRPLPYL; listed as Homo sapiens) [compound 196]”, the “Wells positive [%]” value was “++++ (> = 70% = ++++)”.

On to “197 (EYSLFPGQVVI; listed as Homo sapiens) [compound 197]”, for which the “Wells positive [%]” value is “+ (<20% = +)”.

On to “207 (AYVVFVSTL; listed as Homo sapiens) [compound 207]”, for which the “Wells positive [%]” value is “+ (<20% = +)”.

On to “218 (YYKSTSSAF; listed as Homo sapiens) [compound 218]”, for which the “Wells positive [%]” value is given as “+ (<20% = +)”.

Regarding “230 (KLQNIMMLL; listed as Homo sapiens) [compound 230]”, the “Wells positive [%]” value is listed as “++++ (> = 70% = ++++)”.

The subject of another assay is HLA-A*24. Description: MHC binding assay by UV-ligand exchange and beta2m ELISA (HLA-A*24). Further details: species or system human. The following applies: peptide exchange yield, binding to HLA-A*24; UV-ligand exchange, beta2m ELISA. From the text:
Candidate peptides for T cell based therapies according to the present invention were further tested for their MHC binding capacity (affinity). The individual peptide-MHC complexes were produced by UV-ligand exchange, where a UV-sensitive peptide is cleaved upon UV-irradiation, and exchanged with the peptide of interest as analyzed. Only peptide candidates that can effectively bind and stabilize the peptide-receptive MHC molecules prevent dissociation of the MHC complexes. To determine the yield of the exchange reaction, an ELISA was performed based on the detection of the light chain (β2m) of stabilized MHC complexes. The assay was performed as generally described in Rodenko et al. (Rodenko et al., 2006).
96 well MAXISorp plates (NUNC) were coated over night with 2 ug/ml streptavidin in PBS at room temperature, washed 4× and blocked for 1 h at 37° C. in 2% BSA containing blocking buffer. Refolded HLA-A*02:01/MLA-001 monomers served as standards, covering the range of 15-500 ng/ml. Peptide-MHC monomers of the UV-exchange reaction were diluted 100 fold in blocking buffer. Samples were incubated for 1 h at 37° C., washed four times, incubated with 2 ug/ml HRP conjugated anti-β2m for 1 h at 37° C., washed again and detected with TMB solution that is stopped with […]. Absorption was measured at 450 nm. Candidate peptides that show a high exchange yield (preferably higher than 50%, most preferred higher than 75%) are generally preferred for a generation and production of antibodies or fragments thereof, and/or T cell receptors or fragments thereof, as they show sufficient avidity to the MHC molecules and prevent dissociation of the MHC complexes.
On the technique in general: In an ELISA, binding on a coated surface is turned into a signal by an enzyme label.
In the case of “160 (VYTLDIPVL; listed as Homo sapiens) [compound 160]”, the Peptide exchange result is “++++ (> = 75% = ++++)”.

Turning to “161 (IYLVSIPEL; listed as Homo sapiens) [compound 161]”, the Peptide exchange result was “++++ (> = 75% = ++++)”.

For the substance “166 (YYVESGKLF; listed as Homo sapiens) [compound 166]”, the Peptide exchange result is reported as “++++ (> = 75% = ++++)”.

With “168 (KYQDILETI; listed as Homo sapiens) [compound 168]”, the Peptide exchange result was “++++ (> = 75% = ++++)”.

For “172 (TYTTVPRVAF; listed as Homo sapiens) [compound 172]”, the Peptide exchange entry is on record as “++++ (> = 75% = ++++)”.

Turning to “173 (IYSWILDHF; listed as Homo sapiens) [compound 173]”, the Peptide exchange entry is recorded as “++++ (> = 75% = ++++)”.

As for “175 (YYEVHKELF; listed as Homo sapiens) [compound 175]”, the Peptide exchange entry is reported as “++++ (> = 75% = ++++)”.

Take “177 (VYPWLGALL; listed as Homo sapiens) [compound 177]”: the Peptide exchange result is given as “++++ (> = 75% = ++++)”.

Take “179 (MYDSYWRQF; listed as Homo sapiens) [compound 179]”: the Peptide exchange result was “++++ (> = 75% = ++++)”.

With “181 (LYLDIINLF; listed as Homo sapiens) [compound 181]”, the Peptide exchange result is on record as “++++ (> = 75% = ++++)”.

For the substance “184 (VFQNFPLLF; listed as Homo sapiens) [compound 184]”, the Peptide exchange result is recorded as “++++ (> = 75% = ++++)”.

Consider “186 (IFPQFLYQF; listed as Homo sapiens) [compound 186]”, for which the Peptide exchange result is listed as “++++ (> = 75% = ++++)”.

In the case of “187 (TYLRDQHFL; listed as Homo sapiens) [compound 187]”, the Peptide exchange entry is reported as “++++ (> = 75% = ++++)”.

In the case of “192 (SYALLTYMI; listed as Homo sapiens) [compound 192]”, the Peptide exchange entry was “++++ (> = 75% = ++++)”.

Consider “193 (RFHPTPLLL; listed as Homo sapiens) [compound 193]”, for which the Peptide exchange result is reported as “++++ (> = 75% = ++++)”.

As for “195 (TYSVSFPMF; listed as Homo sapiens) [compound 195]”, the Peptide exchange entry is “++++ (> = 75% = ++++)”.

Take “202 (VYWDSAGAAHF; listed as Homo sapiens) [compound 202]”: the Peptide exchange result is recorded as “++++ (> = 75% = ++++)”.

For “210 (IYTMIYRNL; listed as Homo sapiens) [compound 210]”, the Peptide exchange result was “++++ (> = 75% = ++++)”.

In the case of “211 (YYLEVGKTLI; listed as Homo sapiens) [compound 211]”, the Peptide exchange result is recorded as “++++ (> = 75% = ++++)”.

Turning to “216 (QYSSVFKSL; listed as Homo sapiens) [compound 216]”, the Peptide exchange result was “++++ (> = 75% = ++++)”.

Consider “217 (FFPPTRQMGLLF; listed as Homo sapiens) [compound 217]”, for which the Peptide exchange entry was “++++ (> = 75% = ++++)”.

“227 (IFLDYEAGTLSF; listed as Homo sapiens) [compound 227]”: the Peptide exchange result is recorded as “++++ (> = 75% = ++++)”.

Regarding “228 (KYTSWYVAL; listed as Homo sapiens) [compound 228]”, the Peptide exchange result is on record as “++++ (> = 75% = ++++)”.

As for “267 (KYMVYPQTF; listed as Homo sapiens) [compound 267]”, the Peptide exchange entry is given as “++++ (> = 75% = ++++)”.

Consider “271 (LYHDIFSRL; listed as Homo sapiens) [compound 271]”, for which the Peptide exchange entry was “++++ (> = 75% = ++++)”.

For the substance “272 (QYLQDAYSF; listed as Homo sapiens) [compound 272]”, the Peptide exchange result is given as “++++ (> = 75% = ++++)”.

As for “274 (AYLHSHALI; listed as Homo sapiens) [compound 274]”, the Peptide exchange entry is given as “++++ (> = 75% = ++++)”.

For the substance “276 (VYGFQWRHF; listed as Homo sapiens) [compound 276]”, the Peptide exchange result is listed as “++++ (> = 75% = ++++)”.

Turning to “277 (VYQGHTALL; listed as Homo sapiens) [compound 277]”, the Peptide exchange entry is reported as “++++ (> = 75% = ++++)”.

As to “278 (RYISDQLFTNF; listed as Homo sapiens) [compound 278]”, the Peptide exchange result is given as “++++ (> = 75% = ++++)”.

For “280 (RYPDNLKHLYL; listed as Homo sapiens) [compound 280]”, the Peptide exchange entry is recorded as “++++ (> = 75% = ++++)”.

On to “282 (KFVDSTFYL; listed as Homo sapiens) [compound 282]”, for which the Peptide exchange entry is “++++ (> = 75% = ++++)”.

“289 (KYPVEWAKF; listed as Homo sapiens) [compound 289]”: the Peptide exchange entry is listed as “++++ (> = 75% = ++++)”.
